Measured values as given in ChEMBL document CHEMBL2440027, “Further SAR studies on bicyclic basic merbarone analogues as potent antiproliferative agents” (Bioorg Med Chem, 2013).

Experiments:
[1] = system: HeLa; experiment: Cytotoxicity against human HeLa cells; type: functional, cell-based
[2] = system: MT4; experiment: Cytotoxicity against human MT4 cells; type: functional, cell-based
[3] = target: DNA topoisomerase 2-alpha (Homo sapiens, UniProt P11388); experiment: Inhibition of human topoisomerase 2alpha-mediated relaxation of supercoiled pBR322 after 1 hr by ethidium bromide staining
Sequence of DNA topoisomerase 2-alpha (P11388 whole entry): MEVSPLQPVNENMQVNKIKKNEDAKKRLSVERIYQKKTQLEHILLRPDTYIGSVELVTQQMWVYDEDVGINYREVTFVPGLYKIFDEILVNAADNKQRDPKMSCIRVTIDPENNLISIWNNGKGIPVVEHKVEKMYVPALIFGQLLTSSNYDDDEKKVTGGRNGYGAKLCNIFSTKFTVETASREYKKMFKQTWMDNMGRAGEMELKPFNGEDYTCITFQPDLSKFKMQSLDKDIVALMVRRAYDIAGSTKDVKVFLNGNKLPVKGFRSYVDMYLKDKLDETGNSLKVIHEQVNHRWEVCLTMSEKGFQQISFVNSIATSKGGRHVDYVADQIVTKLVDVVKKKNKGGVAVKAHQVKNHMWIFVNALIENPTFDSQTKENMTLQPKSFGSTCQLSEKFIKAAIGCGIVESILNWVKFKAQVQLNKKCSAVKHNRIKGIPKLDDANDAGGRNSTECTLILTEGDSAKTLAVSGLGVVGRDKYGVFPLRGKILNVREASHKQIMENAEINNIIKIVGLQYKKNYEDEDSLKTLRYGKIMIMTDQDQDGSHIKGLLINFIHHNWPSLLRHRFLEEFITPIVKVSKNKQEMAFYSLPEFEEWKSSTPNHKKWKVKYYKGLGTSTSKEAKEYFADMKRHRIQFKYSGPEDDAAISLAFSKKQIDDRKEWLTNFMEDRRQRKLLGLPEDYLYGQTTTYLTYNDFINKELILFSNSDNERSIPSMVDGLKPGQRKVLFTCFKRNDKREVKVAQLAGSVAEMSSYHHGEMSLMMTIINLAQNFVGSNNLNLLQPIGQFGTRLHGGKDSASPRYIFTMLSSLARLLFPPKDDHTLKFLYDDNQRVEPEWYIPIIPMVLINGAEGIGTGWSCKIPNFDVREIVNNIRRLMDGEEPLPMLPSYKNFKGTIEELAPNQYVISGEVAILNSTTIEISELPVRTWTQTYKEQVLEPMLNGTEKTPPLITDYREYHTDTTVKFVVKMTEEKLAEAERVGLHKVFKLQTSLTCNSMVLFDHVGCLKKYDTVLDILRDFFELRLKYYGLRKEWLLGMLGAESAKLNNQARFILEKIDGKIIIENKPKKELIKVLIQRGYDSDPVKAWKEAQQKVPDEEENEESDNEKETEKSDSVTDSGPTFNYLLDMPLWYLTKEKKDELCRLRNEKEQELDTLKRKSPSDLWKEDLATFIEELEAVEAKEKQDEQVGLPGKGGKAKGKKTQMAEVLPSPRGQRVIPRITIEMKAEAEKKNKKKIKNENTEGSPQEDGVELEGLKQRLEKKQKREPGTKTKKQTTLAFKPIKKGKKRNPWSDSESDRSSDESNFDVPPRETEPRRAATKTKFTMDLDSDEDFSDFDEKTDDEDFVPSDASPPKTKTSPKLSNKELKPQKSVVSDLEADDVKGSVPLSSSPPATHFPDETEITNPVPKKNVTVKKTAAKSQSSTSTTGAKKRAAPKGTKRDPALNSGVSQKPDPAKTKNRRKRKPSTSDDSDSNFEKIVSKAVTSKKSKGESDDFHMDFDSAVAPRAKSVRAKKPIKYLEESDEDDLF

[4] = system: MCF7; experiment: Cytotoxicity against human MCF7 cells; type: functional, cell-based

| SMILES | IC50 ([1]; hela) [µM] | IC50 [2] [µM] | IC50 [3] [µM] | IC50 ([1]; Homo sapiens, HeLa) [µM] | IC50 [4] [µM] |
| --- | --- | --- | --- | --- | --- |
| N=c1c2c(=S)n(-c3ccccc3)c(=S)n(-c3ccccc3)c2nc(NCCc2ccc(Cl)cc2)n1-c1ccccc1 [listing 1 of 2 here] | 5.9 | 2.4 | 2 | – | – |
| O=C1NC(=S)NC(=O)C1C(=O)Nc1ccccc1 [MERBARONE] | – | 12 | 32 | 43.8 | 61.6 |
| N=c1c2c(=S)n(-c3ccccc3)c(=S)n(-c3ccccc3)c2nc(NCCCn2ccnc2)n1-c1ccccc1 | – | 8 | – | > 100 | > 100 |
| CCN(CC)CCNc1nc2c(c(=N)n1-c1ccccc1)c(=S)n(-c1ccccc1)c(=S)n2-c1ccccc1 | – | 2.5 | > 100 | 16.9 | 11.1 |
| CN1CCN(CCCNc2nc3c(c(=N)n2-c2ccccc2)c(=S)n(-c2ccccc2)c(=S)n3-c2ccccc2)CC1 [listing 1 of 2 here] | – | – | > 35 | 8.5 | 5.7 |
| CN1CCN(CCCNc2nc3c(c(=N)n2-c2ccccc2)c(=S)n(-c2ccccc2)c(=S)n3-c2ccccc2)CC1 [listing 2 of 2 here] | – | 2 | – | – | – |
| N=c1c2c(=S)n(-c3ccccc3)c(=S)n(-c3ccccc3)c2nc(SCCN2CCCCC2)n1-c1ccccc1 | – | 3.6 | – | – | – |
| N=c1c2c(=S)n(-c3ccccc3)c(=S)n(-c3ccccc3)c2nc(NNc2ccccc2)n1-c1ccccc1 | – | > 100 | – | – | – |
| N=c1c2c(=S)n(-c3ccccc3)c(=S)n(-c3ccccc3)c2nc(NCc2ccccn2)n1-c1ccccc1 | – | 7 | > 100 | > 50 | > 50 |
| N=c1c2c(=S)n(-c3ccccc3)c(=S)n(-c3ccccc3)c2nc(NCCc2ccncc2)n1-c1ccccc1 | – | 16 | > 100 | 15.4 | 17.8 |
| CCN(CC)CCSc1nc2c(c(=N)n1-c1ccccc1)c(=S)n(-c1ccccc1)c(=S)n2-c1ccccc1 | – | 3.3 | – | – | – |
| N=c1c2c(=S)n(-c3ccccc3)c(=S)n(-c3ccccc3)c2nc(NCCc2ccc(Cl)cc2)n1-c1ccccc1 [listing 2 of 2 here] | – | – | 2 | 5.6 | 25.6 |
| CCCCN(CCCC)CCCNc1nc2c(c(=N)n1-c1ccccc1)c(=S)n(-c1ccccc1)c(=S)n2-c1ccccc1 | – | – | > 32 | 2 | < 1 |
| N=c1c2c(=S)n(-c3ccccc3)c(=S)n(-c3ccccc3)c2nc(NCc2cccnc2)n1-c1ccccc1 [listing 1 of 2 here] | – | – | 3 | 14.6 | 24.3 |
| N=c1c2c(=S)n(-c3ccccc3)c(=S)n(-c3ccccc3)c2nc(NCCN2CCCCC2)n1-c1ccccc1 [listing 1 of 2 here] | – | – | 3 | 5.2 | 26.7 |
| N=c1c2c(=S)n(-c3ccccc3)c(=S)n(-c3ccccc3)c2nc(NCCc2ccccn2)n1-c1ccccc1 | – | 8 | > 100 | 10.5 | 17.3 |
| N=c1c2c(=S)n(-c3ccccc3)c(=S)n(-c3ccccc3)c2nc(NCCN2CCCCC2)n1-c1ccccc1 [listing 2 of 2 here] | – | 1.7 | – | – | – |
| CN1CCN(c2nc3c(c(=N)n2-c2ccccc2)c(=S)n(-c2ccccc2)c(=S)n3-c2ccccc2)CC1 | – | > 100 | – | > 50 | > 50 |
| CN(C)CCCNc1nc2c(c(=N)n1-c1ccccc1)c(=S)n(-c1ccccc1)c(=S)n2-c1ccccc1 | – | 1.7 | > 100 | 7.8 | 5.5 |
| N=c1c2c(=S)n(-c3ccccc3)c(=S)n(-c3ccccc3)c2nc(NCc2cccnc2)n1-c1ccccc1 [listing 2 of 2 here] | 12.6 | > 100 | 3 | – | – |
